Patent US9211284B2, “Diagnosis and treatment of P.R.I.C.E. syndrome” (priority 2013, dated 2015)
“Also recorded” adds a separate entry of the source.

Tests used:
[1] = test system: patient having P.R.I.C.E. Syndrome; assay: Example 1: case report of a patient with P.R.I.C.E. Syndrome, earlier medications then KAPVAY (plus inositol)
From the text: The patient was tried on many psychostimulant medications, which are the gold standard for treatment of ADHD. Medications in this class include: Adderall/XR, Focalin/XR, Dexedrine, Vyvanse, Ritalin/LA/ER, Metadate ER/CD, Concerta and Daytrana.
By convention, psychiatrists refer to this phenomenon as Bipolar III or hypomania induced by medication which predicts and unmasks the development of spontaneous mood swings of genuine Bipolar to come for the patient later in life.
Nevertheless, the psychiatrist tried a series of atypical antipsychotics, including Zyprexa, Geodon, Seroquel as well as two FDA approved drugs for treatment of irritability in Autistic Disorder, Abilify and Risperdal.
The Applicant tapered and discontinued the aforementioned medications in the patient. The Applicant then titrated up KAPVAY® as follows: 0.1 mg at bedtime for a week; next, 0.1 mg twice a day for a week; next, 0.1 mg in the morning and 0.2 mg at night for one week; and finally 0.2 mg twice a day going forward.

[2] = test system: patient having P.R.I.C.E. Syndrome; assay: Example 2: case report of a patient with P.R.I.C.E. Syndrome, earlier medications then INTUNIV (plus inositol); format: in vivo, human; conditions: Example 2 patient; for effect on the patient's symptoms (particularism, concentration) / side effects: medications given before the P.R.I.C.E. diagnosis
Protocol: They had been taking Zoloft and Abilify, as well as Melatonin to help them sleep.
The Applicant tapered and discontinued the patient's then-current medications. The Applicant then titrated up INTUNIV® 1 mg at bedtime, increasing by an additional 1 mg at bedtime every week as necessary to achieve symptom control, up to a maximum of 4 mg.

[3] = test system: patients having P.R.I.C.E. Syndrome; assay: Applicant's general clinical findings in patients who meet all criteria for P.R.I.C.E. Syndrome; format: in vivo, human; conditions: patients meeting all P.R.I.C.E. criteria, Applicant's practice
From the text: Both KAPVAY® and INTUNIV® are FDA-approved for treatment of ADHD. […] A psychiatrist would be led away from prescribing KAPVAY® or INTUNIV® to patients with suspected Bipolar Disorder since it is known that alpha-2 adrenergic agonists could potentially exacerbate emotional lability found in such patients.
Extended release clonidine is capable of stable therapeutic effects by maintaining a constant serum level for an extended period in order to avoid the “peak and trough” side effects of transient sedation at peak serum levels and rebound exacerbation of symptoms at trough levels. Embodiments of extended release compositions of clonidine are described in U.S. Pat. No. 5,869,100, which is incorporated herein by reference in its entirety.

[4] = cited from earlier work
[5] = test system: patients with Bipolar Disorder; conditions: post-marketing reports; cited from earlier work
[6] = Example 1 patient, medications tried before the P.R.I.C.E. diagnosis

SMILES | effect on the patient's symptoms (agitation, impulsivity, concentration, rigidity) [1, 6] | side effects ([1]; human, in vivo) | further results
Nc1nnc(-c2cccc(Cl)c2Cl)c(N)n1 [Lamictal] | ineffective; also recorded: not helping their agitation |  | 
CN[C@H]1CC[C@@H](c2ccc(Cl)c(Cl)c2)c2ccccc21 [Zoloft] |  |  | effect on the patient's symptoms (particularism, concentration) [2]: did not alleviate the particularism; side effects [2]: become “wild” and unable to sleep
OCCOCCN1CCN(C2=Nc3ccccc3Sc3ccccc32)CC1 [Seroquel] |  | severe sedation, impaired their concentration further and caused an increase in both appetite and weight | 
CCCC(CCC)C(=O)O [Depakote] | ineffective; also recorded: not helping their agitation |  | 
CN(C)CCC[C@@]1(c2ccc(F)cc2)OCc2cc(C#N)ccc21 [Lexapro] | worsening their agitation without helping their rigidity |  | 
CC1(C)O[C@@H]2[C@@H](CO[C@@]3(COS(N)(=O)=O)OC(C)(C)O[C@@H]23)O1 [Topamax] | ineffective | worsening the patient's concentration | 
NC(=O)N1c2ccccc2C=Cc2ccccc21 [Tegretol] | ineffective | worsening the patient's concentration | 
O=C1CCc2ccc(OCCCCN3CCN(c4cccc(Cl)c4Cl)CC3)cc2N1 [Abilify] |  | severe sedation, impaired their concentration further and caused an increase in both appetite and weight | effect on the patient's symptoms (particularism, concentration) [2]: without improvement in concentration; side effects [2]: sedation and tremor
Clc1cccc(Cl)c1N=C1NCCN1 [short-acting clonidine, 2,6-dichloro-N-2-imidazolidinylidene benzeneamine] | not effective | too sedative | effectiveness in treating P.R.I.C.E. Syndrome [3]: ineffective; biological half-life ([4]; after oral administration of short-acting clonidine): four to six; primary side-effect ([4]; short-acting clonidine, about an hour after the given dose): sedation; absorption from the gastrointestinal tract ([4]; short-acting oral formulation): almost completely absorbed
N=C(N)NC(=O)Cc1c(Cl)cccc1Cl [Tenex, N-(Aminoiminomethyl)-2,6-dichlorobenzeneacetamide; N-amidino-2-(2,6 dichlorophenyl) acetamide] | not effective |  | side effects [1, 6]: too sedative; manic symptoms in Bipolar Disorder [5]: development or exacerbation of manic symptoms
NC(=O)C[S+]([O-])C(c1ccccc1)c1ccccc1 (stereo not shown) [Provigil] | increased agitation and impulsivity |  | 
COC(=O)C(c1ccccc1)C1CCCCN1 (stereo not shown) [Daytrana] | worsen their agitation without helping their concentration |  | 
NC(=O)N1c2ccccc2CC(=O)c2ccccc21 [Trileptal] | ineffective | worsening the patient's concentration | 
CNCC[C@@H](Oc1ccccc1C)c1ccccc1 [Strattera] | increased agitation and impulsivity |  | 
Cc1nc2n(c(=O)c1CCN1CCC(c3noc4cc(F)ccc34)CC1)CCCC2 [Risperdal] |  | severe sedation, impaired their concentration further and caused an increase in both appetite and weight | side effects [2]: sedation and weight gain
O[C@H]1[C@H](O)[C@@H](O)[C@H](O)[C@@H](O)[C@H]1O [Inositol, inositol] |  |  | effect on "getting stuck" on certain topics in conversation ([2]; Inositol 9000 mg twice a day added to INTUNIV): therapeutically beneficial; effectiveness in treating P.R.I.C.E. Syndrome [3]: effective in addressing residual particularism
CNCCC(Oc1ccc(C(F)(F)F)cc1)c1ccccc1 (stereo not shown) [Prozac] |  |  | effect on the patient's symptoms (particularism, concentration) [2]: did not alleviate the particularism; side effects [2]: become “wild” and unable to sleep
CC(C)NCC(O)COc1cccc2ccccc12 (stereo not shown) [propranolol] | not effective | too sedative | 
CC(NC(C)(C)C)C(=O)c1cccc(Cl)c1 (stereo not shown) [Wellbutrin] | increased agitation and impulsivity |  | 
[Li] [Lithium] |  |  | side effects [1, 6]: worsening the patient's concentration
Cc1cc2c(s1)Nc1ccccc1N=C2N1CCN(C)CC1 [Zyprexa] |  | severe sedation, impaired their concentration further and caused an increase in both appetite and weight | 
NC(=O)C[S@@+]([O-])C(c1ccccc1)c1ccccc1 [Nuvigil] | increased agitation and impulsivity |  | 
O=C1Cc2cc(CCN3CCN(c4nsc5ccccc45)CC3)c(Cl)cc2N1 [Geodon] |  | severe sedation, impaired their concentration further and caused an increase in both appetite and weight | 
